Experimental data from ChEMBL document CHEMBL1201862, “PubChem BioAssay data set” (2004).
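Protocol summary: plate cells (96-well), add compound at 5 concentrations, incubate 48 h, interpolate endpoints linearly. GI50 is the concentration that inhibits growth by half.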 Activity calls are given as the source filed them. Cut-off read from the data, not from the text of the source: active = GI50 up to about 1.1 µM and inactive = higher.

Tests used:
Experiment in all cases: NCI tumour cell line growth inhibition, 48 h
UO-31 = test system: UO-31
RPMI-8226 = test system: RPMI-8226
M14 = test system: M14
SR = test system: SR
COLO 205 = test system: COLO 205
Hs-578T = test system: Hs-578T
HT-29 = test system: HT-29
UACC-62 = test system: UACC-62
OVCAR-4 = test system: OVCAR-4
OVCAR-3 = test system: OVCAR-3
CAKI-1 = test system: CAKI-1
SK-MEL-5 = test system: SK-MEL-5
DU-145 = test system: DU-145
RXF 393 = test system: RXF 393
SNB-19 = test system: SNB-19
SN12C = test system: SN12C
SF-295 = test system: SF-295
SW-620 = test system: SW-620
CCRF-CEM = test system: CCRF-CEM
HCC 2998 = test system: HCC 2998

Measured: GI50

C[N+]1(C)CCc2cc(O)c(O)cc2C1Cc1ccc(O)c(O)c1 (stereo not drawn)
inactive: UO-31 92 µM | RPMI-8226 22.2 µM | M14 92.7 µM | SR 34.8 µM | COLO 205 > 100 µM | Hs-578T 86.9 µM | HT-29 34.8 µM | UACC-62 29.9 µM | OVCAR-4 22.1 µM | OVCAR-3 69 µM | CAKI-1 50.9 µM | SK-MEL-5 48.2 µM | DU-145 > 100 µM | RXF 393 39.9 µM | SNB-19 > 100 µM | SN12C 38.2 µM | SF-295 > 100 µM | SW-620 28.4 µM

CCOC(=O)Cn1c(C(F)(F)F)nc2nc(Cl)c(Cl)nc21
inactive: UO-31 3.44 µM | CCRF-CEM 20 µM | RPMI-8226 6.58 µM | M14 41.3 µM | SR 24.2 µM | COLO 205 40 µM | Hs-578T 25 µM | HT-29 51.9 µM | UACC-62 24.7 µM | OVCAR-4 15.2 µM | OVCAR-3 16.3 µM | CAKI-1 3.12 µM | SK-MEL-5 27.3 µM | DU-145 3.8 µM | RXF 393 27.8 µM | SNB-19 34.4 µM | SN12C 49.4 µM | SF-295 29 µM | SW-620 54 µM

Cc1c2c(n3c(nc4ccccc43)c1C#N)N(c1ccc(F)cc1)CC2
inactive: UO-31 > 100 µM | CCRF-CEM > 100 µM | SR > 100 µM | COLO 205 > 100 µM | Hs-578T 71.1 µM | HT-29 > 100 µM | HCC 2998 > 100 µM | UACC-62 > 100 µM | OVCAR-4 41.4 µM | OVCAR-3 > 100 µM | CAKI-1 > 100 µM | SK-MEL-5 > 100 µM | DU-145 > 100 µM | RXF 393 > 100 µM | SNB-19 > 100 µM | SN12C > 100 µM | SF-295 > 100 µM | SW-620 > 100 µM

O=C(Nc1sccc1S(=O)(=O)c1ccc(Cl)cc1)c1ccccc1
inactive: UO-31 > 100 µM | CCRF-CEM > 100 µM | RPMI-8226 > 100 µM | M14 > 100 µM | SR > 100 µM | COLO 205 > 100 µM | Hs-578T > 100 µM | HT-29 > 100 µM | UACC-62 > 100 µM | OVCAR-4 45 µM | OVCAR-3 > 100 µM | CAKI-1 > 100 µM | SK-MEL-5 > 100 µM | DU-145 > 100 µM | RXF 393 > 100 µM | SNB-19 > 100 µM | SN12C > 100 µM | SF-295 > 100 µM | SW-620 > 100 µM

COc1ccc2c(c1)/C(=C(\C(Cl)=C(\Cl)N1CCCCC1)[N+](=O)[O-])N2
inactive: UO-31 > 100 µM | CCRF-CEM 40.7 µM | M14 > 100 µM | SR 27.1 µM | COLO 205 59.2 µM | Hs-578T > 100 µM | HT-29 > 100 µM | HCC 2998 > 100 µM | UACC-62 > 100 µM | OVCAR-4 87.5 µM | OVCAR-3 42.5 µM | CAKI-1 > 100 µM | SK-MEL-5 45.9 µM | DU-145 > 100 µM | RXF 393 64 µM | SNB-19 > 100 µM | SN12C > 100 µM | SF-295 80.5 µM | SW-620 71 µM

COc1cc(-c2ccccc2)cn2c1nc1ccccc12
inactive: UO-31 14.8 µM | CCRF-CEM 25.5 µM | RPMI-8226 20.9 µM | M14 20.3 µM | SR 29.2 µM | COLO 205 19.2 µM | Hs-578T 27.6 µM | HT-29 17.3 µM | HCC 2998 15.9 µM | UACC-62 18.7 µM | OVCAR-3 16.4 µM | CAKI-1 19.6 µM | SK-MEL-5 18.5 µM | DU-145 25.6 µM | RXF 393 17.3 µM | SNB-19 23.1 µM | SN12C 19.8 µM | SW-620 35 µM

COc1ccc(/C=C(/C#N)C(N)=O)c(OC)c1
inactive: UO-31 2.15 µM | CCRF-CEM 26.8 µM | RPMI-8226 > 100 µM | M14 41.3 µM | SR 37.3 µM | COLO 205 > 100 µM | Hs-578T > 100 µM | HT-29 > 100 µM | UACC-62 42.6 µM | OVCAR-4 > 100 µM | OVCAR-3 > 100 µM | CAKI-1 > 100 µM | SK-MEL-5 50.9 µM | DU-145 > 100 µM | RXF 393 > 100 µM | SNB-19 > 100 µM | SN12C > 100 µM | SF-295 82.8 µM | SW-620 79.3 µM

COc1ccc(/C=C2\N=C(c3ccccc3)OC2=O)cc1OC(C)=O
inactive: UO-31 58.7 µM | CCRF-CEM 27.7 µM | RPMI-8226 32 µM | M14 99.8 µM | SR 15.2 µM | COLO 205 > 100 µM | Hs-578T 26.3 µM | HT-29 47.3 µM | HCC 2998 93.5 µM | UACC-62 > 100 µM | OVCAR-4 63.1 µM | OVCAR-3 48.9 µM | SK-MEL-5 63 µM | DU-145 > 100 µM | RXF 393 > 100 µM | SNB-19 > 100 µM | SN12C > 100 µM | SW-620 51.4 µM

O=c1[nH]c(=O)n(C2CC(O)C(CO)O2)cc1Oc1ccccc1 (stereo not drawn)
inactive: UO-31 > 100 µM | CCRF-CEM > 100 µM | RPMI-8226 > 100 µM | M14 > 100 µM | SR > 100 µM | COLO 205 > 100 µM | Hs-578T > 100 µM | HT-29 > 100 µM | UACC-62 > 100 µM | OVCAR-4 > 100 µM | OVCAR-3 > 100 µM | CAKI-1 > 100 µM | SK-MEL-5 > 100 µM | DU-145 > 100 µM | RXF 393 > 100 µM | SNB-19 > 100 µM | SN12C > 100 µM | SF-295 47.4 µM

O=C(/C(=C(/Br)I)c1ccccc1)c1ccccc1
inactive: UO-31 22.7 µM | CCRF-CEM 5.56 µM | RPMI-8226 7.1 µM | M14 16.3 µM | SR 27 µM | COLO 205 17.6 µM | Hs-578T 40.1 µM | HT-29 17.9 µM | HCC 2998 13.6 µM | UACC-62 18.4 µM | OVCAR-3 21.4 µM | CAKI-1 38.5 µM | SK-MEL-5 14.6 µM | DU-145 14.3 µM | RXF 393 16.8 µM | SNB-19 38.2 µM | SN12C 17.8 µM | SF-295 27.2 µM

COc1cc2oc(-c3ccc(O)cc3O)c(CC=C(C)C)c(=O)c2c(O)c1/C=C/C(C)C [ARTOCARPIN]
inactive: UO-31 2.95 µM | CCRF-CEM 2.36 µM | RPMI-8226 2.62 µM | M14 1.77 µM | SR 2.02 µM | COLO 205 4.02 µM | Hs-578T 3.44 µM | HT-29 2.51 µM | HCC 2998 2.46 µM | UACC-62 3.83 µM | OVCAR-4 2.61 µM | OVCAR-3 2.08 µM | SK-MEL-5 1.69 µM | DU-145 4.26 µM | RXF 393 2.12 µM | SNB-19 2.72 µM | SN12C 1.81 µM | SF-295 3.48 µM | SW-620 2.33 µM
